# Results published in patent US9718771B2, “Aniline derivative, pharmaceutical composition containing same, and use thereof” (Kissei Pharmaceutical Co., Ltd., priority 2014, dated 2017).
# pIC50: −log10 of the molar value.
# How the values were obtained:
# [1] = tested on: Naïve T cells-transferred colitis model; test: Drug efficiency evaluation in naïve T cells-transferred colitis model; type: in vivo; conditions: SCID mice, oral twice a day; vehicle group = 100%; mean ± standard error
# Method: The Drug Efficiency Evaluation in Naïve T Cells—Transferred Colitis Model
# (1) Purification of CD45RB Positive Naïve T Cells and Transfer the Cells into SCID Mice
# After female BALB/c mice (Charles River Japan, 8-weeks-old in use) were sacrificed by blood removal from cervical vein under inhalation anesthesia with isoflurane spleens were harvested from these mice. Spleens were washed with ice-cold PBS (phosphate buffered saline, Invitrogen) and stored in 50 mL tube containing PBS on ice. Spleens stored on ice were mashed with the upper portion of slide glasses inside a biological safety cabinet, and filtered through a cell filter (pore size 70 μm), and the filtrate was centrifuged at 500×g, room temperature for 5 minutes. After the supernatant was removed, 12 mL of RBC lysis buffer (Biolegend) was added to a cell pellet and it was resuspended and left for about 3 minutes. The supernatant was removed after centrifugation and the hemolytic process was performed by repeating same procedure once again.
# The cells were purified with Mouse Naive T cell CD4^+/CD62L^+/CD44^low Colum Kit (R&D systems). The cells performed with the hemolytic process, were suspended by column buffer attached to the above Column Kit, and purified through a cell filter (pore size 70 μm) after centrifugation at 500×g, room temperature for 5 minutes. The cells were resuspended with column buffer, and antibody cocktails attached to the above Column Kit were added to this and mixed. After that, the cells were purified according to the protocol of the Column Kit.
# Next, purification of CD45RB positive cells was performed by MACS (registered mark) separator (Miltenyi Biotec). The purified cells were suspended with 2 mL of PBS containing 0.5% BSA, and reacted at room temperature for 15 minutes after adding FITC (fluorescein isothiocyanate)-labeled anti-CD45RB antibody (Biolegend). After washing two times with PBS containing 0.5% BSA by centrifugation, the cells were resuspended with 2 mL of PBS containing 0.5% BSA and reacted at room temperature for 10 minutes after adding anti-FITC microbeads (Miltenyi Biotec). After washing one time with PBS containing 0.5% BSA by centrifugation, the cells were resuspended with 3 mL of PBS containing 0.5% BSA, and a fraction of CD45RB positive cells was purified according to the protocol of MACS (registered trademark) separator. In the process of elution after detached from MACS (registered trademark) separator, the cells were separated with 5 mL of PBS. The cell suspension was washed one time by centrifugation with PBS, resuspended by appropriate PBS and measured the cell number as naïve T cells suspension for transfer. Female CB17/Icr-scid/scid Jcl (SCID mice) (Charles River Japan, 8-weeks-old in use) were induced colitis by intraperitoneal administration of 500 μL (divided into 250 μL two times) of naïve T cells suspension prepared at 6×10^5 cells/mL by PBS.
# (2) Measurement of Body Weight and Procedure for Administration of Drugs
# Body weights were measured at day 1, 8 and 15 as day 0 when naïve T cells were transferred to mice. Mice were grouped evenly, based on body weight change at day 15. The measurement of body weight was performed two times a week after day 15. A solvent (Vehicle) and test compounds were administered twice a day from the evening of day 15. The administration solution was prepared as indicated below. Firstly, 0.5% methyl cellulose (Wako pure chemicals) of 1/10 volume of total volume was added to test compound, and a suspension was prepared by sonication. […] After that, administration solutions for test compounds were prepared by sonication while adding distilled water of 9/10 volume of total volume to these suspensions in several batches. A solution prepared in the same volume ratios of 0.5% methyl cellulose and distilled water as administration solutions for test compounds was used as vehicle. Administration solutions for vehicle or test compounds were orally administered to mice at 5 mL/kg.
# blood lymphocytes = test: Confirmation test for reduction effects on the number of lymphocytes; type: in vivo, Male Sprague-Dawley rats; conditions: rat, oral; for Number of lymphocytes (% of Vehicle) After 6 hours: 6 hours after administration; for Number of lymphocytes (% of Vehicle) After 24 hours: 24 hours after administration; for Number of lymphocytes (% of Vehicle) After 48 hours: 48 hours after administration
# Method: Confirmation Test for Reduction Effects on the Number of Lymphocytes
# Reduction effects on the number of blood lymphocytes by test compounds were confirmed using Male Sprague-Dawley rats (Japan SLC, 7-weeks-old in use). Administration solutions for test compounds were prepared on hot-plate at 50° C. After test compounds were dissolved by DMSO (dimethyl sulfoxide, Wako Pure Chemicals) of 1/10 volume of the total volume, WellSolve (Celeste) of 1/10 volume of the total volume was added to this solution. Further, distilled water (Otsuka Pharmaceutical Factory) of 8/10 volume of the total volume was added to this solution, and the administration solutions for test compounds were prepared. A solution, prepared in the same volume ratios of DMSO. WellSolve and distilled water as the administration solution for test compounds, was used as a solvent (Vehicle). Vehicle or test compound was administered orally to rats at 1 mL/body. After 6, 24 and 48 hours from administration of vehicle or test compounds, rats were held on the board at supine position under inhalation anesthesia with isoflurane (Abbott Japan). Blood samples (200 to 250 μL) were collected from the cervical vein of this rat using 1 mL syringes with needles of 25G. The collected blood samples were transferred to a microtube treated with EDTA-2K (Japan Becton Dickinson), and stored at room temperature after gently mixing with inversion. The number of lymphocytes was measured by ADVIA (registered mark) (Bayer), which is a multi-parameter automated blood cell counter using this blood samples. The average number of lymphocytes in vehicle-treated group (vehicle group) was defined as 100%, and the average number of lymphocytes in each test compound-treated group was calculated as % of vehicle. As Comparative Example 2, 1-{5-[1-(4-chloro-3-methyl-phenyl)-propylamino]-2-methyl-benzyl}-azetidine-3-carboxylic acid (patent literature 1, Example 4) was evaluated as well.
# human S1P1 (EDG-1) = human S1P1 (EDG-1) (Homo sapiens (Human), UniProt P21453); test: Confirmation test of antagonistic activity for human S1P1 receptor (35S-GTP binding, cell membranes); type: biochemical; conditions: inhibition of 35S-GTP binding induced by S1P1 receptor selective agonist; HEK293 membranes expressing human S1P1
# Method: Confirmation Test of Antagonistic Activity for Human S1P1 Receptor
# Test compounds were tested by reduction of functional binding activity of ^35S-GTP (guanosine 5′-O-[gamma-thio] triphosphate, PerkinElmer) to G protein using cell membranes expressing human S1P1 (EDG-1). S1P1-pcDNA3.1/V5-His-Topo vector was prepared by inserting cDNA (NM_001400) encoding human S1P1 into the expression vector, pcDNA3.1/V5-His-Topo (registered trademark) (Invitrogen). Next, the above S1P1-pcDNA3.1 vector was transfected into HEK293 cells by Lipofectamine2000 (registered trademark) (Invitrogen). The transfected cells were incubated with D-MEM liquid medium each containing 10% FBS (Fetal bovine serum), 100 U/mL penicillin, 100 μg/mL streptomycin and 1 mg/mL Geneticin (registered trademark) (Invitrogen) in an incubator under the condition of 5% CO2 at 37° C. and Geneticin (registered mark)-resistant cell line stably expressing S1P1 were obtained. The obtained stably S1P1-expressing cells were incubated with D-MEM liquid medium each containing 10% FBS and 0.5 mg/mL Geneticin (registered trademark) in an incubator under the condition of 5% CO2 at 37° C. The cells grown to confluence were harvested by a buffer solution containing 50 mM Tris, 2 mM EDTA (ethylmediaminetetraacetic acid) and 125 mM sodium chloride, and centrifuged at 1880×g, 4° C. for 10 minutes. After a supernatant was removed, a cell pellet was resuspended by the same buffer solution. For making cell membranes fragile, this cell suspension was frozen at −80° C. and then thawed. The cells were centrifuged at 1880×g, 4° C. for 10 minutes, and a supernatant was removed. The cell pellet was suspended by adding the same buffer solution and a fracture solution (10 mM sodium bicarbonate and 5 mM EDTA, pH 7.5) at a ratio of 2:1. The cells were fractured by subjecting the cell suspension to ultrasonication, and a cell membrane fraction was isolated by centrifugation at 1880×g, 4° C. for 10 minutes and ultracentrifugation of the supernatant at 80000×g, 4° C. for 30 minutes. A pellet of the cell membrane fraction was suspended by the fracture solution containing protease inhibitor cocktail (Roche) and stored at −80° C. until use. A protein concentration of the cell membrane fraction was determined using BCA Protein Assay Kit (Pierce) in accordance with an attached protocol.
# Inhibitory activity evaluation was performed by multi-screen (registered trademark) HTS 96-well plate (Millipore) using the cell membrane fraction stably expressing S1P1 obtained by the above operation. 25 μL of assay solution (50 mM Tris, 100 mM sodium chloride, 5 mM magnesium chloride, 1 mM EDTA, 1 mM DTT (dithiothreitol), 10 μM GDP (guanosine diphosphate) and 0.5% BSA (bovine serum albumin), pH 7.4), 25 μL of test compounds solution diluted by assay solution and 25 μL of the membrane fraction (0.2 μg protein/μL) were added to each well, and the mixture was gently shaken at room temperature: for 30 minutes. Then, 25 μL of ^35S-GTP, and 25 μL of 50 nM S1P1 receptor selective agonist (1-[4-(4-phenyl-5-trifluoromethylthiophen-2-ylmethoxy)benzyl]azetidine-3-carboxylic acid, “J. Med. Chem.”, 2004, vol. 47, pp. 6662-6665, compound 18) were added to each well, respectively, and it was reacted at room temperature for 60 minutes. After the reaction, a reaction solution of each well was suction-filtered. After suction filtration, ice-colded wash solution (50 mM Tris, 100 mM sodium chloride, […] and 1 mM EDTA, pH 7.4) was added to each well, and moreover filters were washed by suction filtration. This wash procedure was performed three times. A bottom of the plate containing the filters was dried at 60° C. After drying, 30 μL of MicroScinti-40 (PerkinElmer) was added to each well, and the radioactivity adsorbed on the filter was determined by TopCount NXT (registered trademark) (PerkinElmer) after shaking for 30 minutes at room temperature. […]
# Chain of human S1P1 (EDG-1) (P21453 whole entry): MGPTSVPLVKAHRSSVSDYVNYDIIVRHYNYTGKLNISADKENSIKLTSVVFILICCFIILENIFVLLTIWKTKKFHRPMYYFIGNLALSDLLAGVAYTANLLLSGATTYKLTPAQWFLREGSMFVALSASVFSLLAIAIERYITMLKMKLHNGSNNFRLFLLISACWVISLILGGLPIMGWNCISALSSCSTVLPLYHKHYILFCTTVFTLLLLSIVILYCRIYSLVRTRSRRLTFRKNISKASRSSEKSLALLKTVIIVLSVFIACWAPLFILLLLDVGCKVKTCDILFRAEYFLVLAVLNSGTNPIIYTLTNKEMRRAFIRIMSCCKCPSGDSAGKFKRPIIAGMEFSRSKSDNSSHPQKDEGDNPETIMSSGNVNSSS
structure (smiles),measurement,setting,value
"Nc1ccc(O)c(C(=O)O)c1 [5-Aminosalicylic acid, reference compound]",Colon weight (%),[1],75.9 ± 58.3%
"CCC(Nc1ccc(C)c(CN2CC(C(=O)O)C2)c1)c1ccc(Cl)c(C)c1 (centres unmarked) [Comparative Example 2, 1-{5-[1-(4-chloro-3-methyl-phenyl)-propylamino]-2-methyl-benzyl}-azetidine-3-carboxylic acid, reference compound]",Number of lymphocytes (% of Vehicle) After 6 hours,blood lymphocytes; 1 mg/kg,39.9 % of Vehicle
same,Number of lymphocytes (% of Vehicle) After 24 hours,blood lymphocytes; 1 mg/kg,82.3 % of Vehicle
same,Number of lymphocytes (% of Vehicle) After 48 hours,blood lymphocytes; 1 mg/kg,109.6 % of Vehicle
same,Number of lymphocytes (% of Vehicle) After 6 hours,blood lymphocytes; 10 mg/kg,16.8 % of Vehicle
same,Number of lymphocytes (% of Vehicle) After 24 hours,blood lymphocytes; 10 mg/kg,94.0 % of Vehicle
same,Number of lymphocytes (% of Vehicle) After 48 hours,blood lymphocytes; 10 mg/kg,110.3 % of Vehicle
same,time course of the number of lymphocytes in blood (in words),blood lymphocytes; 6 to 48 hours after administration,transient reduction of the number of lymphocytes in blood
"CCN(c1ccc(Cl)c(C(F)(F)F)c1)C1CCc2c1ccc(C)c2CN1CC(C(=O)O)C1 (centres unmarked) [Compound 2-8, 1-{1-[(4-Chloro-3-trifluoromethylphenyl)(ethyl)amino]-5-methylindan-4-ylmethyl}azetidine-3-carboxylic acid]",pIC50,human S1P1 (EDG-1),8.54
same,Number of lymphocytes (% of Vehicle) After 6 hours,blood lymphocytes; 1 mg/kg,15.1 % of Vehicle
same,Number of lymphocytes (% of Vehicle) After 24 hours,blood lymphocytes; 1 mg/kg,34.5 % of Vehicle
same,Number of lymphocytes (% of Vehicle) After 48 hours,blood lymphocytes; 1 mg/kg,87.7 % of Vehicle
same,Number of lymphocytes (% of Vehicle) After 6 hours,blood lymphocytes; 10 mg/kg,13.7 % of Vehicle
same,Number of lymphocytes (% of Vehicle) After 24 hours,blood lymphocytes; 10 mg/kg,12.3 % of Vehicle
same,Number of lymphocytes (% of Vehicle) After 48 hours,blood lymphocytes; 10 mg/kg,33.4 % of Vehicle
Cc1cc(N(Cc2cccc(CN3CC(C(=O)O)C3)c2)C(C)C)ccc1Cl [Compound 3-4],pIC50,human S1P1 (EDG-1),7.82
CCN(c1ccc(Cl)c(C)c1)C1CCCc2c(CN3CC(C(=O)O)C3)cccc21 (centres unmarked) [Compound 3-7],pIC50,human S1P1 (EDG-1),7.89
"C=Cc1ccc(C(C)N(CC)c2ccc(Cl)c(C(F)(F)F)c2)cc1CN1CC(C(=O)O)C1 (centres unmarked) [Compound 4-1, 1-(5-{1-[(4-Chloro-3-trifluoromethylphenyl)(ethyl)amino]ethyl}-2-vinylbenzyl)-azetidine-3-carboxylic acid]",pIC50,human S1P1 (EDG-1),8.92
CCN(c1cc(C(F)(F)F)cc(C(F)(F)F)c1)C(C)c1ccc(C)c(CN2CC(C(=O)O)C2)c1 (centres unmarked) [Compound 4-2],pIC50,human S1P1 (EDG-1),8.51
"CCN(c1ccc(Cl)c(C(F)(F)F)c1)C(C)c1ccc(CO)c(CN2CC(C(=O)O)C2)c1 (centres unmarked) [Compound 5-1, 1-(5-{1-[(4-Chloro-3-trifluoromethylphenyl)(ethyl)amino]ethyl}-2-hydroxymethyl-benzyl)azetidine-3-carboxylic acid]",pIC50,human S1P1 (EDG-1),8.36
CCN(c1ccc(Cl)c(C(F)(F)F)c1)C(CO)c1ccc(C)c(CN2CC(C(=O)O)C2)c1 (centres unmarked) [Compound 6-2],pIC50,human S1P1 (EDG-1),8.60
CCN(c1ccc(Cl)c(C)c1)C1CCc2c(CN3CC(C(=O)O)C3)cccc21 (centres unmarked) [Compound 6-3],pIC50,human S1P1 (EDG-1),8.55
CCN(c1ccc(Cl)c(C)c1)[C@H](C)c1cccc(CN2CC(C(=O)O)C2)c1 [Compound 6-5],pIC50,human S1P1 (EDG-1),8.92
